Data reported in ChEMBL document CHEMBL1140084, “Discovery and evaluation of 4-(2-(4-chloro-1H-pyrazol-1-yl)ethylamino)-3-(6-(1-(3-fluoropropyl)piperidin-4-yl)-4-methyl-1H-benzo[d]imidazol-2-yl)pyridin-2(1H)-one (BMS-695735), an orally efficacious inhibitor of insulin-like growth factor-1 receptor kinase with broad spectrum in vivo antitumor …” (J Med Chem, 2008).
pIC50: −log10 of the molar value. In brackets after ≈: the same amount, converted by molar mass. One block for each molecule: values may come before it. Activity calls are given as the source filed them. The rule behind the calls is not given here.

Columns and labels:
[1] = Antiproliferative activity against transgenic mouse SAL cells overexpressing human IGF1R assessed as [3H]thymidine incorporation after 72 hrs
Cytochrome P450 3A4 = Cytochrome P450 3A4 (Homo sapiens, UniProt P08684); experiment: Inhibition of human recombinant CYP3A4 in human liver microsomes using BFC as a substrate
Sequence of Cytochrome P450 3A4 (P08684 whole entry): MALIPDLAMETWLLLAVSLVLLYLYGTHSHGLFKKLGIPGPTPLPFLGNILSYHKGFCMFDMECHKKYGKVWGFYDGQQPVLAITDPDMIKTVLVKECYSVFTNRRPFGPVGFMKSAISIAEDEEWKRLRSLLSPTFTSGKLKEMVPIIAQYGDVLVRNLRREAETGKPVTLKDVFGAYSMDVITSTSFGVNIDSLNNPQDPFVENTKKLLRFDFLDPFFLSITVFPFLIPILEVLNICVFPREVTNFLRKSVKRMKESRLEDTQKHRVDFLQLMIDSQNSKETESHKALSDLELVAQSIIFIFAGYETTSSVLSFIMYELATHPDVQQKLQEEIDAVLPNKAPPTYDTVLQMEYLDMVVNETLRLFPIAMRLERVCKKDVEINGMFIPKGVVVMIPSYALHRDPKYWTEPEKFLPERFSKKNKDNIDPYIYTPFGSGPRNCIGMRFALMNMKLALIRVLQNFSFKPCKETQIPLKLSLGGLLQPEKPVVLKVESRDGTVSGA

[2] = molecular target: T1, Nuclear receptor subfamily 1 group I member 2 (Homo sapiens, UniProt O75469); experiment: Induction of PXR transactivation
T1 sequence (O75469 whole entry): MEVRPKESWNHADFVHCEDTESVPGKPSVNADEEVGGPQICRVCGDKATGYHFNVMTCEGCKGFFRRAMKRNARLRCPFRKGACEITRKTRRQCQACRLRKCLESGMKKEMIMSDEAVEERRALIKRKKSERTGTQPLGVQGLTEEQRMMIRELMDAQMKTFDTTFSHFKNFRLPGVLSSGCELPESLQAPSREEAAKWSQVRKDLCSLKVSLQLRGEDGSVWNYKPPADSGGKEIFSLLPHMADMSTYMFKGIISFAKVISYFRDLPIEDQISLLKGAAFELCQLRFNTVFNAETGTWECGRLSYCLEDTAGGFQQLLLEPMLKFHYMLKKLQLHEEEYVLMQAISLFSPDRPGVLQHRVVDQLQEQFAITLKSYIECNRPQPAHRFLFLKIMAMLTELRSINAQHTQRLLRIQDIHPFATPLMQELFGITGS

[3] = AUC in mouse at 20 mg/kg after 4 hrs; type: ADME, organism-based; design: time < 4 hr, dose 20 mg/kg; settings: plasma
Mus musculus [4] = experiment: Induction of glucose homeostasis in mouse assessed as glucose elevation at 50 mg/kg after glucose challenge by OGTT; type: functional, organism-based; design: dose 50 mg/kg
Mus musculus [5] = experiment: Induction of glucose homeostasis in mouse assessed as glucose elevation at 100 mg/kg after glucose challenge by OGTT; type: functional, organism-based; design: dose 100 mg/kg
[6] = Antitumor activity against mouse IGFSal cell xenografted nu/nu athymic mouse at 50 mg/kg, po bid for 5 days; type: functional; settings: 120 h, read-out: TGI
[7] = molecular target: Tyrosine-protein kinase ITK/TSK (Homo sapiens, UniProt Q08881); experiment: Inhibition of GST-tagged Emt
Sequence of Tyrosine-protein kinase ITK/TSK (Q08881 whole entry): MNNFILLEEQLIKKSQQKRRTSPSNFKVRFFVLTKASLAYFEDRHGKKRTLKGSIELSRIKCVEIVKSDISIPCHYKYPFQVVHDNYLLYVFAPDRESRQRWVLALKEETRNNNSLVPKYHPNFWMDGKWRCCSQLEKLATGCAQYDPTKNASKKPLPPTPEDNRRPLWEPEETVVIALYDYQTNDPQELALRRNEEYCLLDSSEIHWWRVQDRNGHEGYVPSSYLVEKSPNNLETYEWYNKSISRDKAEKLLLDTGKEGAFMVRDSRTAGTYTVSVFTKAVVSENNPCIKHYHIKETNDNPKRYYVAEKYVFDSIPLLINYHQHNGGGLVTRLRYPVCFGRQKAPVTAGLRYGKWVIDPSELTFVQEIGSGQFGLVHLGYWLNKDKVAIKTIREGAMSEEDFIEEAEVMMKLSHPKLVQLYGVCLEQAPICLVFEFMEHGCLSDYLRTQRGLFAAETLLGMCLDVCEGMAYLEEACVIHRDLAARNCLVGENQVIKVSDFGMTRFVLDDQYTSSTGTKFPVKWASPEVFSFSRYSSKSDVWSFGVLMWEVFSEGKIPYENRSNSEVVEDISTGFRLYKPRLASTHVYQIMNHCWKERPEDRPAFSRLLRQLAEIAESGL

[8] = molecular target: Insulin-like growth factor 1 receptor (Homo sapiens, UniProt P08069); experiment: Inhibition of human IGF1R expressed in transgenic mouse IGFSal cells; type: cell-based
[9] = Protein binding in mouse plasma at 10 uM by equilibrium dialysis; type: ADME, cell-free; settings: read-out: PPB (converted)
[10] = Oral bioavailability in mouse at 50 mg/kg; type: ADME, organism-based; settings: in vivo
[11] = Cmax in mouse at 50 mg/kg, po; type: ADME, organism-based; design: dose 50 mg/kg, route oral; settings: in vivo
[12] = Total clearance in mouse at 5 mg/kg, iv and 50 mg/kg, po; type: ADME, organism-based; settings: in vivo
[13] = Volume of distribution at steady state in mouse at 5 mg/kg, iv and 50 mg/kg, po; type: ADME, organism-based; settings: in vivo, read-out: Vdss
[14] = Half life in mouse at 5 mg/kg, iv and 50 mg/kg, po; type: ADME, organism-based; settings: in vivo
[15] = Oral bioavailability in rat at 10 mg/kg; type: ADME, organism-based; settings: in vivo
[16] = Cmax in rat at 10 mg/kg, po; type: ADME, organism-based; design: dose 10 mg/kg, route oral; settings: in vivo
[17] = Total clearance in rat at 2 mg/kg, iv and 10 mg/kg, po; type: ADME, organism-based; settings: in vivo
[18] = Volume of distribution at steady state in rat at 2 mg/kg, iv and 10 mg/kg, po; type: ADME, organism-based; settings: in vivo, read-out: Vdss
[19] = Half life in rat at 2 mg/kg, iv and 10 mg/kg, po; type: ADME, organism-based; settings: in vivo
[20] = Oral bioavailability in dog at 10 mg/kg; type: ADME, organism-based, Canis lupus familiaris; settings: in vivo
[21] = Cmax in dog at 10 mg/kg, po; type: ADME, organism-based, Canis lupus familiaris; design: dose 10 mg/kg, route oral; settings: in vivo
[22] = Total clearance in dog at 2 mg/kg, iv and 10 mg/kg, po; type: ADME, organism-based, Canis lupus familiaris; settings: in vivo
[23] = Volume of distribution at steady state in dog at 2 mg/kg, iv and 10 mg/kg, po; type: ADME, organism-based, Canis lupus familiaris; settings: in vivo, read-out: Vdss
[24] = Half life in dog at 2 mg/kg, iv and 10 mg/kg, po; type: ADME, organism-based, Canis lupus familiaris; settings: in vivo
[25] = Oral bioavailability in monkey at 10 mg/kg; type: ADME, organism-based, Macaca mulatta; settings: rhesus monkey, in vivo
[26] = Cmax in monkey at 10 mg/kg, po; type: ADME, organism-based, Macaca mulatta; design: dose 10 mg/kg, route oral; settings: rhesus monkey, in vivo
[27] = Total clearance in monkey at 2 mg/kg, iv and 10 mg/kg, po; type: ADME, organism-based, Macaca mulatta; settings: rhesus monkey, in vivo
[28] = Volume of distribution at steady state in monkey at 2 mg/kg, iv and 10 mg/kg, po; type: ADME, organism-based, Macaca mulatta; settings: rhesus monkey, in vivo, read-out: Vdss
[29] = Half life in monkey at 2 mg/kg, iv and 10 mg/kg, po; type: ADME, organism-based, Macaca mulatta; settings: rhesus monkey, in vivo
[30] = Inhibition of IRK
[31] = molecular target: Protein kinase C alpha type (Homo sapiens, UniProt P17252); experiment: Inhibition of PKCalpha
[32] = molecular target: Protein kinase C delta type (Homo sapiens, UniProt Q05655); experiment: Inhibition of PKCdelta
Sequence of Protein kinase C delta type (Q05655 whole entry): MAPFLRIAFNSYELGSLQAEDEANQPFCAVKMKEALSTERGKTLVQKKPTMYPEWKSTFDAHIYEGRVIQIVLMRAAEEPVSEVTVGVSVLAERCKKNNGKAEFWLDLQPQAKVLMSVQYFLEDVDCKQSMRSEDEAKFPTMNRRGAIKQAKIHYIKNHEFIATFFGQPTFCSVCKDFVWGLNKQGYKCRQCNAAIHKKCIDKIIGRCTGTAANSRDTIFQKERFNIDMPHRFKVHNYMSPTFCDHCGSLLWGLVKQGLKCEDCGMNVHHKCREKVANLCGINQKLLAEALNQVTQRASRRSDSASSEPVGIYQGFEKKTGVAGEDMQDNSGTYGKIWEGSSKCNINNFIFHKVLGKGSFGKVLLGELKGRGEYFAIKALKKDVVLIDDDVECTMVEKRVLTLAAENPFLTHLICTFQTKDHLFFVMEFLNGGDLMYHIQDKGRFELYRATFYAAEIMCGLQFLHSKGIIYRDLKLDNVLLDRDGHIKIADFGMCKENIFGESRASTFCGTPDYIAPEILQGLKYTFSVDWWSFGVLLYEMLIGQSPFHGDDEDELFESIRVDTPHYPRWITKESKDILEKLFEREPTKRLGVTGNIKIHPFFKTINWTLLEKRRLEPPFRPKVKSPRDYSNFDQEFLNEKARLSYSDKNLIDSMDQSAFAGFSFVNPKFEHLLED

[33] = molecular target: cAMP-dependent protein kinase catalytic subunit beta (Homo sapiens, UniProt P22694); experiment: Inhibition of PKA-B
[34] = Inhibition of GST-tagged IKK
[35] = molecular target: RAC-alpha serine/threonine-protein kinase (Homo sapiens, UniProt P31749); experiment: Inhibition of AKT
[36] = molecular target: Mitogen-activated protein kinase 14 (Homo sapiens, UniProt Q16539); experiment: Inhibition of p38alpha
[37] = molecular target: MAP kinase-activated protein kinase 2 (Homo sapiens, UniProt P49137); experiment: Inhibition of MK2
[38] = molecular target: Vascular endothelial growth factor receptor 2 (Homo sapiens, UniProt P35968); experiment: Inhibition of GST-tagged KDR
[39] = molecular target: Fibroblast growth factor receptor 1 (Homo sapiens, UniProt P11362); experiment: Inhibition of human recombinant FGFR1
[40] = molecular target: Epidermal growth factor receptor (Homo sapiens, UniProt P00533); experiment: Inhibition of GST-tagged HER1
Sequence of Epidermal growth factor receptor (P00533 whole entry): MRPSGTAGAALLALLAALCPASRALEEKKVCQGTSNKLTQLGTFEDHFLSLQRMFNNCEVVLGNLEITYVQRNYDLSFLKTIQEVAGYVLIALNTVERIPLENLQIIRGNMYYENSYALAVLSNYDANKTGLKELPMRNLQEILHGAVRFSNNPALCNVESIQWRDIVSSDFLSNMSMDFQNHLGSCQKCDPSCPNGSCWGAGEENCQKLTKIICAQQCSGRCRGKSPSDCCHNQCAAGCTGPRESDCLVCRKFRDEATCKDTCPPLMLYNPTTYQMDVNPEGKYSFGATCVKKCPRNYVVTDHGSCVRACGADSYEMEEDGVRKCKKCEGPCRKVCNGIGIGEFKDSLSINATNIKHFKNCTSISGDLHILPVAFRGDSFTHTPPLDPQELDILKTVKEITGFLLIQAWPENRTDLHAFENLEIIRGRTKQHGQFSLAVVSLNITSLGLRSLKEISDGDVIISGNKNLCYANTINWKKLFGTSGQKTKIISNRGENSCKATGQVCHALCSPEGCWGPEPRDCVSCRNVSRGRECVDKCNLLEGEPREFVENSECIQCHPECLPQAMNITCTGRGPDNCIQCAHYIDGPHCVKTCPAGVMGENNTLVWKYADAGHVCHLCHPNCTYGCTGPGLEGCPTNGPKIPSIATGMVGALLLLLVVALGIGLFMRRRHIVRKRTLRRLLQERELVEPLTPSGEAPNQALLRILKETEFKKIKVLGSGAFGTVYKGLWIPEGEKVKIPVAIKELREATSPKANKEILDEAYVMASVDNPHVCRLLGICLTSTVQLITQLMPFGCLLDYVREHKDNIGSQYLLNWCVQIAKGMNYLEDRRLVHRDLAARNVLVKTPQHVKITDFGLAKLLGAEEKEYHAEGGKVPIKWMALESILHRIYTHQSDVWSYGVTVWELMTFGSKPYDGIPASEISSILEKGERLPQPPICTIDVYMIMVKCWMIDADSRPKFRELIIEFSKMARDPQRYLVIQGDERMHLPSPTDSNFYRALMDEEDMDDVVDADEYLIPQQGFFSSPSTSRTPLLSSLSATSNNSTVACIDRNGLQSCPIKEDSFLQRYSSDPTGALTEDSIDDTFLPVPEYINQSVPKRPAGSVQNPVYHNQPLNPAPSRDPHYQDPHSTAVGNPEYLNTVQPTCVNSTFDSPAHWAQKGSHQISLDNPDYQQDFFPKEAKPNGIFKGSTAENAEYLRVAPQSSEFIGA

[41] = molecular target: Receptor tyrosine-protein kinase erbB-2 (Homo sapiens, UniProt P04626); experiment: Inhibition of GST-tagged HER2
Sequence of Receptor tyrosine-protein kinase erbB-2 (P04626 whole entry): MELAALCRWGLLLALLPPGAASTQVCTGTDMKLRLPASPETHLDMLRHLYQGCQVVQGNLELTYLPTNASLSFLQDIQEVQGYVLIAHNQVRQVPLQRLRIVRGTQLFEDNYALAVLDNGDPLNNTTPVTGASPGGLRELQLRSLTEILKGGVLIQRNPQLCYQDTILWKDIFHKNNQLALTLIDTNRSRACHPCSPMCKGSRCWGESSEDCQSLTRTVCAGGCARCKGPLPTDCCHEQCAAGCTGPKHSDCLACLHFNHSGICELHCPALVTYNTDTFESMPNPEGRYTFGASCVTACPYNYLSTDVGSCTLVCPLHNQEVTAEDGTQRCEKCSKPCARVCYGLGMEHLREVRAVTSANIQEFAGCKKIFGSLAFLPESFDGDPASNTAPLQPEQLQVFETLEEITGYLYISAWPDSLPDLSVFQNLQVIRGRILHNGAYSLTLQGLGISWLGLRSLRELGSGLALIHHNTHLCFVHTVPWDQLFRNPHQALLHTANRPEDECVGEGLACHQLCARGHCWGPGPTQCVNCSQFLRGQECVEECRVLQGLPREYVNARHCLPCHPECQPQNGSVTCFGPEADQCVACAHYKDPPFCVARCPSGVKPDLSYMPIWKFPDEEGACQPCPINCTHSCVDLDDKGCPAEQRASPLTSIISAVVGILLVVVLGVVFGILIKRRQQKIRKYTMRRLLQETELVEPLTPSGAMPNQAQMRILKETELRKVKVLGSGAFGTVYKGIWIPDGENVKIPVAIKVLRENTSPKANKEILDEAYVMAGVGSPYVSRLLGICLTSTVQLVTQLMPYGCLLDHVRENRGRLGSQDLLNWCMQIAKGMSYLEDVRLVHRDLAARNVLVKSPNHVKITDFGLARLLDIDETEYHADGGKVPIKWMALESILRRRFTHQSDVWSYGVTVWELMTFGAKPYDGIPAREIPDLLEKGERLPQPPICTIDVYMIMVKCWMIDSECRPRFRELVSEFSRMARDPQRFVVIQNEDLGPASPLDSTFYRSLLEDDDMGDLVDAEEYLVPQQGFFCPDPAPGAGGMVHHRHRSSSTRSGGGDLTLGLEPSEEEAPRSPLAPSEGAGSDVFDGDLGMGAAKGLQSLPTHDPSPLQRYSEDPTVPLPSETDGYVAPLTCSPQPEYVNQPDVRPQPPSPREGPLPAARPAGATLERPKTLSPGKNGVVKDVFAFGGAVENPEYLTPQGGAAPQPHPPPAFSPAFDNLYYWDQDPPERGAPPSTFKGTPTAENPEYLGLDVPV

[42] = molecular target: Hepatocyte growth factor receptor (Homo sapiens, UniProt P08581); experiment: Inhibition of GST-tagged Met
[43] = Inhibition of His-tagged GSK3
Phosphodiesterase 4 = Phosphodiesterase 4 (Homo sapiens, UniProt P27815+Q08499+Q07343+Q08493); experiment: Inhibition of human PDE4 in U937 cells; type: cell-based; settings: u-937
COLO 205 = experiment: Antitumor activity against human Colo205 cell xenografted nu/nu athymic mouse at 100 mg/kg, po bid for 21 days; type: functional; settings: COLO 205, 504 h, read-out: TGI
[44] = Antitumor activity against human JJN3 cell xenografted nu/nu athymic mouse at 100 mg/kg, po bid for 21 days; type: functional; settings: JJN-3, 504 h, read-out: TGI
[45] = Antitumor activity against human Geo cell xenografted nu/nu athymic mouse at 100 mg/kg, po bid for 21 days; type: functional; settings: 504 h, read-out: TGI
Cytochrome P450 1A2 = Cytochrome P450 1A2 (Homo sapiens, UniProt P05177); experiment: Inhibition of human recombinant CYP1A2 in human liver microsomes; type: ADME, Microsome
Cytochrome P450 2C9 = Cytochrome P450 2C9 (Homo sapiens, UniProt P11712); experiment: Inhibition of human recombinant CYP2C9 in human liver microsomes; type: ADME, Microsome
Sequence of Cytochrome P450 2C9 (P11712 whole entry): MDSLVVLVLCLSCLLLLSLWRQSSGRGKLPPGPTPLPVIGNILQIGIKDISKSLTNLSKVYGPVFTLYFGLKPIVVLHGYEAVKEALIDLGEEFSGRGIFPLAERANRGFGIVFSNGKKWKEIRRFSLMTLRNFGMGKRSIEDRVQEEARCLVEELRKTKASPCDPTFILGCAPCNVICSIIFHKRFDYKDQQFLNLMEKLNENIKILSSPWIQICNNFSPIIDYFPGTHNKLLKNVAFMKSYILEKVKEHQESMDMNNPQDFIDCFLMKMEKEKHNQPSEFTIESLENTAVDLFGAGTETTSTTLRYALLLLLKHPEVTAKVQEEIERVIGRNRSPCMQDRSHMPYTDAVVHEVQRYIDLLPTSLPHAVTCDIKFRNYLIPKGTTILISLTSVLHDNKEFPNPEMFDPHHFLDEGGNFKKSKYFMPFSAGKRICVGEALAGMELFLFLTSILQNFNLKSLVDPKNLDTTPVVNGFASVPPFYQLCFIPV

Cytochrome P450 2C19 = Cytochrome P450 2C19 (Homo sapiens, UniProt P33261); experiment: Inhibition of human recombinant CYP2C19 in human liver microsomes; type: ADME, Microsome
Cytochrome P450 2D6 = Cytochrome P450 2D6 (Homo sapiens, UniProt P10635); experiment: Inhibition of human recombinant CYP2D6 in human liver microsomes; type: ADME, Microsome
[46] = Apparent permeability across human CaCo2 cells; type: ADME, cell-based; settings: Caco-2
[47] = Aqueous solubility of the compound; type: physicochemical; settings: buffer
Hepatocyte = experiment: Cytotoxicity against human hepatocytes; type: cell-based
Mus musculus [48] = experiment: Induction of glucose homeostasis in mouse assessed as glucose elevation at 50 to 100 mg/kg prior to glucose challenge by OGTT; type: functional, organism-based
Focal adhesion kinase 1 = Focal adhesion kinase 1 (Homo sapiens, UniProt Q05397)

- pIC50 (Cytochrome P450 3A4): 4.85
- EC20 [2]: > 50 µM
- AUC at 4 h [3]: 1.2 µM·h
Compound: Cc1cc(C2CCN(C)CC2)cc2[nH]c(-c3c(NC[C@@H](O)c4cccc(Cl)c4)cc[nH]c3=O)nc12
- pIC50 [1]: 7.07

- EC20 [2]: > 50 µM
Compound: Cc1cc(C2CCN(CCCF)CC2)cc2[nH]c(-c3c(NC[C@@H](O)c4cccc(Cl)c4)cc[nH]c3=O)nc12
- pIC50 [1]: 7.12

The next lines start with the molecule.

Compound: Cc1cc(C2CCN(CCCF)CC2)cc2[nH]c(-c3c(NCCn4cc(Cl)cn4)cc[nH]c3=O)nc12
- Activity (Mus musculus [4]): inactive
- Activity (Mus musculus [5]): inactive
- inhibition in vivo at 50 mg/kg [6]: 81%
- pIC50 [7]: 6.43
- pIC50 [1]: 6.73
- pIC50 [8]: 7.47
- pIC50 (Cytochrome P450 3A4): 4.59
- EC20 [2]: > 50 µM
- AUC at 4 h [3]: 3.7 µM·h
- fraction unbound at 10 µM [9]: 0.131
- bioavailability [10]: > 100%
- Cmax [11]: 2300 nM
- clearance [12]: 159 mL/min/kg
- Vd [13]: 18.2 L/kg
- half-life [14]: 2.3 h
- bioavailability [15]: 23%
- Cmax [16]: 200 nM
- clearance [17]: 76 mL/min/kg
- Vd [18]: 20 L/kg
- half-life [19]: 4 h
- bioavailability [20]: 35%
- Cmax [21]: 270 nM
- clearance [22]: 23 mL/min/kg
- Vd [23]: 21 L/kg
- half-life [24]: 10.5 h
- bioavailability [25]: 48%
- Cmax [26]: 400 nM
- clearance [27]: 27 mL/min/kg
- Vd [28]: 17 L/kg
- half-life [29]: 7.3 h
- pIC50 [30]: 7.14
- pIC50 [31]: 4.96
- pIC50 [32]: 4.69
- pIC50 [33]: 4.42
- pIC50 [34]: < 4.00
- pIC50 [35]: 4.32
- pIC50 [36]: 4.51
- pIC50 [37]: < 4.30
- pIC50 [38]: 6.43
- pIC50 [39]: > 5.30
- pIC50 [40]: 4.68
- pIC50 [41]: 5.22
- pIC50 [42]: 5.40
- pIC50 [43]: 5.07
- IC50 (Phosphodiesterase 4): 4 µM
- inhibition in vivo at 100 mg/kg (COLO 205): 93%
- inhibition in vivo at 100 mg/kg [44]: 80%
- inhibition in vivo at 100 mg/kg [45]: 73%
- pIC50 (Cytochrome P450 1A2): < 4.40
- pIC50 (Cytochrome P450 2C9): < 4.40
- pIC50 (Cytochrome P450 2C19): 4.47
- pIC50 (Cytochrome P450 2D6): < 4.40
- Papp [46]: 10.9 ×10⁻⁶ cm/s
- solubility [47]: 137 µg/mL (≈ 268 µM)
- Activity (Hepatocyte): Non-toxic
- Activity (Mus musculus [48]): inactive
- pIC50 (Focal adhesion kinase 1): 6.78

Compound: COCCN1CCC(c2cc(C)c3nc(-c4c(NCCn5cc(Cl)cn5)cc[nH]c4=O)[nH]c3c2)CC1
- pIC50 [1]: 7.34
- pIC50 (Cytochrome P450 3A4): 4.71
- EC20 [2]: > 50 µM
- AUC at 4 h [3]: 1.8 µM·h
- fraction unbound at 10 µM [9]: 0.038

Compound: Cc1cc(C2CCN(CCO)CC2)cc2[nH]c(-c3c(NCCn4cc(Cl)cn4)cc[nH]c3=O)nc12
- pIC50 [1]: 6.62
- pIC50 (Cytochrome P450 3A4): 4.64
- EC20 [2]: > 50 µM
- AUC at 4 h [3]: 0.1 µM·h
